Laboratory results from patent US8580516B2, “Methods and compositions for direct detection of DNA damage” (University of Chicago, priority 2008, dated 2013).

Key:
[1] = Privat and Sowers 1996; cited from earlier work
several cell lines = details: cited from earlier work
mammalian cells = details: via misincorporation and/or mispairing during replication; cited from earlier work
HL60 cells = experiment: In vitro differentiation of HL60 cells to neutrophils, CD11b flow cytometry; assay type: cell-based; details: 1 μM, five days, FITC anti-human CD11b flow cytometry
Experimental: HL60 cells were grown to confluence (1×10^6 cells/ml) in Roswell Park Memorial Institute media (“RPMI”) 1640 media supplemented with 10% fetal bovine serum, 1% penicillin/streptomycin and 2 mM L-glutamine at 37° C. in 5% CO2 and treated with ethanol carrier, 1 μM ATRA or 1 μM ATRA, 6 nM Vitamin D3 and 30 ng/ml G-CSF for five days.

O=Cc1cn([C@H]2C[C@H](O)[C@@H](CO)O2)c(=O)[nH]c1=O [5-FodU, 5-formyldeoxyuridine]
pKa [1]: 6.8 | IC50 (several cell lines; 5-FodU fed to tissue culture cells, several cell lines, read-out: IC50 (toxicity)): ~1000 nM | toxicity in cells lacking thymidine kinase or thymidylate synthetase (several cell lines; cells lacking thymidine kinase or thymidylate synthetase): lost

O=Cc1cn([C@H]2C[C@H](O)[C@@H](COP(=O)(O)OP(=O)(O)OP(=O)(O)O)O2)c(=O)[nH]c1=O [5-FodUTP, 5-formyl deoxyuridine triphosphate]
mutations induced in cells (mammalian cells): induces both transition and transversion mutations

CC1=C(/C=C/C(C)=C/C=C/C(C)=C/C(=O)O)C(C)(C)CCC1 [ATRA, all-trans retinoic acid]
expression of CD11b (HL60 cells): increased expression of CD11b

O=c1ccn([C@@H]2O[C@H](CO)[C@@H](O)[C@H]2O)c(=O)[nH]1 [uridine]
pKa [1]: 9.4
